These compounds were tested against T1, Dihydrofolate reductase (Homo sapiens) (UniProt P00374).
T1 sequence (whole entry): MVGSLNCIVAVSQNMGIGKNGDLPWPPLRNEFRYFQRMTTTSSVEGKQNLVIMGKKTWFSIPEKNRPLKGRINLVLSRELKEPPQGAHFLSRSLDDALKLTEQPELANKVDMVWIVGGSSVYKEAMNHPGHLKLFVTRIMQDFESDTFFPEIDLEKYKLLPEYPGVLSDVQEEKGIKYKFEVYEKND
Description: Inhibitory activity against human lymphoblastoid cell (WIL2) dihydrofolate reductase (DHFR)
In the case of `CC1(C)N=C(N)N=C(N)N1c1ccc(SCc2ccccc2)cc1`, the Log 1/Ki app is reported as 7.01.
For `CC1(C)N=C(N)N=C(N)N1c1ccc(CSc2ccccc2)cc1`, the Log 1/Ki app was 7.33.
With `CCCCCCOc1ccc(N2C(N)=NC(N)=NC2(C)C)cc1` the Log 1/Ki app was 5.53.
With `CC1(C)N=C(N)N=C(N)N1c1ccc(OCc2ccc(C(N)=O)cc2)cc1` the Log 1/Ki app was 7.23.
Work on `CC1(C)N=C(N)N=C(N)N1c1ccc(S(N)(=O)=O)cc1` yielded a Log 1/Ki app of 3.81.
`CC1(C)N=C(N)N=C(N)N1c1ccc(F)cc1` gave a Log 1/Ki app of 6.15.
In the case of `CC(=O)c1ccc(N2C(N)=NC(N)=NC2(C)C)cc1`, the Log 1/Ki app is reported as 4.5.
`CCCOc1ccc(N2C(N)=NC(N)=NC2(C)C)cc1` showed a Log 1/Ki app of 5.57.
For `CC1(C)N=C(N)N=C(N)N1c1ccc(SCc2ccc(Cl)cc2)cc1`, the Log 1/Ki app was 6.97.
`CC1(C)N=C(N)N=C(N)N1c1ccc(Br)cc1` showed a Log 1/Ki app of 5.76.
`CC1(C)N=C(N)N=C(N)N1c1ccc(OCc2ccc(CO)cc2)cc1` gave a Log 1/Ki app of 7.12.
Work on `Cc1cccc(SCc2ccc(N3C(N)=NC(N)=NC3(C)C)cc2)c1` yielded a Log 1/Ki app of 7.22.
Compound `CC1(C)N=C(N)N=C(N)N1c1ccc(OCC(=O)N2CCOCC2)cc1` has a Log 1/Ki app of 5.66.
Work on `COc1ccc(N2C(N)=NC(N)=NC2(C)C)cc1` yielded a Log 1/Ki app of 5.31.
For `CC1(C)N=C(N)N=C(N)N1c1ccc(OCCOc2ccc(N)cc2)cc1`, the Log 1/Ki app was 6.
With `CCCCCCCCCCCOc1ccc(N2C(N)=NC(N)=NC2(C)C)cc1` the Log 1/Ki app was 5.68.
`CCCCCCCCCCCCOc1ccc(N2C(N)=NC(N)=NC2(C)C)cc1` was tested, and the Log 1/Ki app was 5.85.
`CC1(C)N=C(N)N=C(N)N1c1ccc(C#N)cc1` gave a Log 1/Ki app of 3.69.
With `CC1(C)N=C(N)N=C(N)N1c1ccc(C#Cc2ccccc2)cc1` the Log 1/Ki app was 5.42.
For `CC1(C)N=C(N)N=C(N)N1c1ccc(I)cc1`, the Log 1/Ki app was 5.51.
`CC1(C)N=C(N)N=C(N)N1c1ccc(S(C)(=O)=O)cc1` was tested, and the Log 1/Ki app was 4.08.
`CC1(C)N=C(N)N=C(N)N1c1ccc(O)cc1` gave a Log 1/Ki app of 4.57.
In the case of `CC1(C)N=C(N)N=C(N)N1c1ccc(OCc2ccc(S(N)(=O)=O)cc2)cc1`, the Log 1/Ki app is reported as 7.21.
With `CC1(C)N=C(N)N=C(N)N1c1ccc(OCc2ccc(Cl)c(Cl)c2)cc1` the Log 1/Ki app was 6.46.
`CC1(C)N=C(N)N=C(N)N1c1ccc(OCc2ccccc2)cc1` gave a Log 1/Ki app of 6.93.
Compound `CCOC(=O)c1ccc(N2C(N)=NC(N)=NC2(C)C)cc1` has a Log 1/Ki app of 3.46.
In the case of `CC(=O)Nc1ccc(N2C(N)=NC(N)=NC2(C)C)cc1`, the Log 1/Ki app is reported as 4.23.
Work on `CCCCCCCCCc1ccc(N2C(N)=NC(N)=NC2(C)C)cc1` yielded a Log 1/Ki app of 6.52.
With `Cc1ccc(N2C(N)=NC(N)=NC2(C)C)cc1` the Log 1/Ki app was 5.97.
Compound `CC(C)(C)c1ccc(N2C(N)=NC(N)=NC2(C)C)cc1` has a Log 1/Ki app of 5.66.
`COC(=O)c1ccc(N2C(N)=NC(N)=NC2(C)C)cc1` showed a Log 1/Ki app of 3.85.
For `Cc1ccccc1SCc1ccc(N2C(N)=NC(N)=NC2(C)C)cc1`, the Log 1/Ki app was 7.18.
Compound `CC1(C)N=C(N)N=C(N)N1c1ccc(C(F)(F)F)cc1` has a Log 1/Ki app of 5.58.
`CC1(C)N=C(N)N=C(N)N1c1ccc(N)cc1` was tested, and the Log 1/Ki app was 4.65.
`CCCCc1ccc(N2C(N)=NC(N)=NC2(C)C)cc1` was tested, and the Log 1/Ki app was 6.27.
